Key:
Assay type in all cases: in vivo, human
[1] = test system: healthy participants and patients with ET; test: Safety across the clinical development program
[2] = Phase 1 trial: effect of a high-fat, high-calorie meal on pharmacokinetics; conditions: 120 mg dose, steady state, healthy adult participants
Procedure: The effect of a high-fat, high-calorie meal on the pharmacokinetics of Compound I was evaluated in healthy participants who had previously received Compound 1 under fasted conditions in a Phase 1 trial. The effect of a high-fat, high-calorie meal on the PK of Compound 1 was evaluated at the 120 mg dose level after healthy adult participants had titrated to reach steady-state exposure. Following administration of 120 mg dose in the fed state or fasted state, the maximum plasma drug concentration (Cmax) and AUC, values were similar. Based on this analysis, Compound 1 may be administered without regard to food.

[3] = test system: participants with moderate to severe ET; test: Phase 2 trial, double-blind part: safety/tolerability
Procedure: (§1) This trial is a Phase 2 trial to evaluate the efficacy and safety/tolerability of titration of Compound 1 to 60 mg or 100 mg compared to placebo in participants with moderate to severe ET. Severity of ET in this study was defined by eligibility criteria on TETRAS-ADL, CGI-S, and TETRAS-PS items 6 and 7. This dose range finding trial is comprised of three parts. The first part was randomized, double-blinded (DB), and placebo-controlled, the second part was an optional extension that consisted of an Extension DB Lead-in Period followed by an Extension Open-label (OL) Period. Further, there was also a third part available for completers of the Day 99 visit, which third part was comprised of a blinded cross-over period (referred to as cross-over period) after re-randomization for 6 weeks, after which all completers would receive formula (I) in an open-label fashion. In part one of the trial, eligible participants were randomized to 1 of 2 dose levels of Compound 1 (60 mg or 100 mg) or to placebo. The primary objective of this trial was to evaluate the efficacy of Compound 1 compared to placebo after 56 days (end of randomized, DB, placebo-controlled part) of dosing in participants with ET with moderate to severe tremor utilizing modified ADL as the primary efficacy endpoint. Secondary and exploratory objectives include further efficacy evaluations, an evaluation of the safety and tolerability, and determination of plasma concentrations of formula (I) and its metabolites. The design of the Phase 2 trial is illustrated in FIG. 1.
Throughout the Intervention Period (Day 1 to Day 56), participants who chose to stop dosing or were required to stop dosing entered the Safety Follow-up Period. All participants were asked to return to the clinic for the Safety Follow-up Visit 14 days after their last dose of study drug except for those that chose to enroll in the optional Extension part of the trial (see below).
On Days 7, 21, 35, and 54 participants received a telephone call from site staff to ask about AEs and changes in concomitant medications.

[4] = test system: participants with moderate to severe ET; test: Phase 2 trial, randomized double-blind placebo-controlled part: efficacy (TETRAS mADL, ADL, mADL11, PGI-C, CGI-S)
Source text: as §1, with “Severity” for “This trial is a Phase 2 trial to evaluate the efficacy and safety/tolerability of titration of Compound 1 to 60 mg or 100 mg compared to placebo in participants with moderate to severe ET. Severity”, “In part one of the trial, eligible participants were randomized to 1 of 2 dose levels of Compound 1 (60 mg or 100 mg) or to placebo.” left out
Participants who continued to meet all clinical trial entry criteria on Day 1 were randomized to receive DB treatment with Compound 1 or placebo every morning (QAM) from Day 1 through Day 56. Participants were randomized to 1 of 2 fixed-dose regimens or placebo in a 1:1:1 ratio. No dosage adjustments were allowed.
On Days 14, 28, 42, and 56, participants returned to the clinic for PK sampling, dosing, efficacy, and safety assessments. Key efficacy assessments at these visits included TETRAS-PS, TETRAS ADL, CGI-S, CGI-I, and PGI C.
Fixed titration regimens were used (Table 1). Participants were not allowed to adjust the number of tablets per day.
Selected items from the TETRAS-ADL and TETRAS-PS (or TETRAS-CUL, as appropriate) were scored in a modified manner and combined to create a TETRAS modified total score. Items 1-11 in the TETRAS ADL subscale and items 6 and 7 of the TETRAS-PS were used, with scoring adjusted so that response options 0 and 1 were combined into a single response of “0=Normal.” Further, scores of 2, 3, and 4 were adjusted to 1, 2, and 3, respectively. The TETRAS modified total score were the sum of these adjusted TETRAS-ADL and TETRAS PS items, having a possible range of 0 to 42, where larger values represent increased direct tremor impact to activities of daily living. The items that are included in the TETRAS-modified total score are illustrated in FIG. 2.
The primary efficacy measure in this clinical trial was change from baseline in mADL at day 56. Ulixacaltamide effect on individual mADL items was determined by calculating the fold-change adjusted by placebo change at Day 56 in mADL for individual mADL items. The secondary efficacy measures included change in Clinical Global Impression-Severity (CGI-S) score, Patient Global Impression-Change (PGI-C) score, TETRAS-ADL total score, TETRAS-UL score, TETRAS-CUL score and TETRAS-PS score.

CC(C)(C)NC(=O)CN1CCC(CNC(=O)c2cc(F)cc(Cl)c2)CC1 [Compound 1, N-((1-(2-(tert-butylamino)-2-oxoethyl)piperidin-4-yl)methyl)-3-chloro-5-fluorobenzamide]
Deaths or SAEs considered related to study drug ([1]; human, in vivo): No deaths or serious adverse events (SAEs)
Suicide attempts or pregnancies reported ([1]; human, in vivo): no suicide attempts or pregnancies
Safety profile ([1]; modified release formulation, titration, 5 to 120 mg for up to 129 days): favorable safety profile
Tolerability ([1]; up to 129-days of daily administration, 5 to 120 mg, titration schedule): generally well tolerated
AUC, fed state vs fasted state [2]: similar
Cmax, fed state vs fasted state [2]: similar
Safety profile, 60 mg vs 100 mg groups ([3]; in vivo): no significant difference in the safety profile
Severity of the majority of TEAEs ([3]; in vivo): mild-moderate
Proportion of subjects who discontinued ([3]; placebo 11%): 17%
Tolerability ([3]; titration to 60 mg or 100 mg, 56 days): well tolerated
mADL11 treatment effect relative to placebo ([4]; Day 14, participants without intention tremor): 1.03 points
LSM mADL11 change from baseline, treatment effect relative to placebo ([4]; Day 28): 1.44
TETRAS PS items (dominant hand handwriting, left and right hand spirals), improvement vs placebo ([4]; Day 56): less improvement than those receiving placebo
mADL11 LSM treatment difference vs placebo ([4]; after 56 days, 95% CI −3.565, −0.066, nominal p <0.05): −1.82
mADL and mADL11 scores vs. placebo at each scored timepoint ([4]; after day 14, FIG. 15): improvement
Magnitude of benefit on mADL11 vs placebo, 60 mg vs 100 mg groups ([4]; change from baseline versus placebo): largely similar
Modified ADL (mADL) scores in the Phase 2 trials ([4]; daily doses ranging from 20 to 120 mg for up to 56 days): reduced modified ADL (mADL) scores
mADL scores, patients showing improvement vs placebo ([4]; day 56, FIG. 9): more patients taking ulixacaltamide showed improvements
ADL score, average reduction compared to baseline ([4]; day 56, n=78): 3.6 points
ADL scored items with consistent effect relative to placebo ([4]; individual items, Day 56): 8 of 11
Patients improved on CGI-S scale ([4]; mITT): 42%
Patients improved on PGI-C scale ([4]; mITT): 47%
mADL-scored items vs baseline in ET patients who do not have intention tremor ([4]; mITT excluding intention tremor, FIGS. 18 and 19): larger improvement
Placebo-adjusted mADL excluding PS, 60 mg vs 100 mg regimens ([4]; mITT patients without intention tremor, FIG. 20): consistent effect observed across both tested dosing regimens
mADL LS mean difference vs. placebo ([4]; mITT, Day 56, p=0.126): 1.57
Modified ADL score, mean decrease ([4]; n=78, placebo 0.88 points): 2.69 points
Patients achieving at least a 3-point improvement in mADL11 ([4]; patients on propranolol and ulixacaltamide, 25% for propranolol and placebo): 48%
mADL excluding PS items, LS mean difference vs. placebo ([4]; post hoc, Day 56, mITT, p=0.042): 1.81
Treated participants with at least a 2 point improvement in total score ([4]; post-hoc responder analysis, 0.5 SD threshold, mITT): greater than 50%
Treated subjects with at least a 4 point improvement in total score ([4]; post-hoc responder analysis, 1 SD threshold, mITT): roughly 40%
Response rates vs placebo for mADL and mADL excluding PS items ([4]; post-hoc responder analysis, MCID distribution method, mITT): greater response rates
Change in TETRAS-ADL, LS mean difference vs. placebo ([4]; secondary endpoint, p=0.026): 2.53

— US20250387382A1, “METHODS OF TREATING ESSENTIAL TREMOR” (Praxis Precision Medicines, Inc., priority 2023, published 2025)
